Test results taken from patent publication US20080161269A1, “Compounds 620” (ASTRAZENECA AB, priority 2006, published 2008).
Counter-ions that a name gives are not always drawn.

molecular target: human β-Secretase (Homo sapiens, UniProt P56817); assay: TR-FRET assay; format: biochemical; details: enzyme (truncated form) 0.3 nM; substrate (Europium)CEVNLDAEFK(Qsy7) 100 nM; pH4.5; 15 minutes at room temperature
Procedure: The enzyme used in the IGEN Cleavage-, Fluorescent-, TR-FRET- and the BiaCore assay is described as follows:
The gene was fused to the Fc domain of IgG1 (affinity tag) and stably cloned into HEK 293 cells. Purified sBACE-Fc is stored in Tris buffer, pH 9.2 and has a purity of 95%.
Dilute the enzyme (truncated form) to 6 μg/mL (stock 1.3 mg/mL) and the substrate (Europium)CEVNLDAEFK(Qsy7) to 200 nM (stock 60 μM) in reaction buffer (NaAcetate, chaps, triton x-100, EDTA pH4.5). The Biomek FX is used for all liquid handling and the enzyme and substrate solutions are kept on ice until they are placed in Biomek FX. Enzyme (9 μl) is added to the plate then 1 μl of compound in dimethylsulphoxide is added, mixed and pre-incubated for 10 minutes. Substrate (10 μl) is then added, mixed and the reaction proceeds in the dark for 15 minutes at room temperature. The reaction is stopped with the addition of Stop solution (7 μl, NaAcetate pH 9). The fluorescence of the product is measured on a Wallac Victor II plate reader with an excitation wavelength of 340 nm and an emission wavelength of 615 nm. The assay is done in a Costar 384 well round bottom, low volume, non-binding surface (Corning #3676). The final concentration of the enzyme is 0.3 nM; the final concentration of substrate is 100 nM (Km of ˜250 nM). The dimethylsulphoxide control defines the 100% activity level and 0% activity is defined by exclusion of the enzyme, only using reaction buffer instead.

Sequence of human β-Secretase (P56817 22-460): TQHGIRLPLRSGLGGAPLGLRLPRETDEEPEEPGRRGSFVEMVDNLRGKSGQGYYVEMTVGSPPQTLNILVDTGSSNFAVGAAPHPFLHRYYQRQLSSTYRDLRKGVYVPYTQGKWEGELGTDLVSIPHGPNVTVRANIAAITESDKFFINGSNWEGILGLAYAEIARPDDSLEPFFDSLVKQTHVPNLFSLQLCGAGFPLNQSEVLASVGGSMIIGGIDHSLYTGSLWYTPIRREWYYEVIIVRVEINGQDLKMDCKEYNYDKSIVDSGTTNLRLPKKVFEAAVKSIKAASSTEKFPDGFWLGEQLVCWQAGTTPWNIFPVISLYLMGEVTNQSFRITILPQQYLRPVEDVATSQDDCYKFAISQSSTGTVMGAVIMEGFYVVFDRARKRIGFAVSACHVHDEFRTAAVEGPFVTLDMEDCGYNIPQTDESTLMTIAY

Row | Compound | IC50 [nM]
1 | COc1cccc(-c2cccc(C3(c4ccc([Si](C)(C)C)cc4)N=C(N)N(C)C3=O)c2)c1 (stereo not shown) [Example 12, 2-Amino-5-(3′-methoxybiphenyl-3-yl)-3-methyl-5-[4-(trimethylsilyl)phenyl]-3,5-dihydro-4H-imidazol-4-one] | 84
2 | CN1C(=O)C(c2ccc([Si](C)(C)C)cc2)(c2cccc(-c3cnccc3C#N)c2)N=C1N (stereo not shown) [Example 21, 3-[3-[2-amino-1-methyl-5-oxo-4-(4-trimethylsilylphenyl)imidazol-4-yl]phenyl]pyridine-4-carbonitrile Acetic Acid Salt] | 460
3 | CN1C(=O)C(c2cccc(-c3cncnc3)c2)(c2cccc([Si](C)(C)C)c2)N=C1N (stereo not shown) [Example 26, 2-amino-1-methyl-4-(3-(pyrimidin-5-yl)phenyl)-4-(3-(trimethylsilyl)phenyl)-1H-imidazol-5(4H)-one] | 135
4 | CN1C(=O)C(c2cccc(-c3cncc(Cl)c3)c2)(c2cccc([Si](C)(C)C)c2)N=C1N (stereo not shown) [Example 27, 2-amino-4-(3-(5-chloropyridin-3-yl)phenyl)-1-methyl-4-(3-(trimethylsilyl)phenyl)-1H-imidazol-5(4H)-one] | 163
5 | CN1C(=O)C(c2cccc(-c3ccc(F)nc3)c2)(c2cccc([Si](C)(C)C)c2)N=C1N (stereo not shown) [Example 28, 2-amino-4-(3-(6-fluoropyridin-3-yl)phenyl)-1-methyl-4-(3-(trimethylsilyl)phenyl)-1H-imidazol-5(4H)-one] | 278
6 | CN1C(=O)C(c2cccc(-c3cccnc3)c2)(c2cccc([Si](C)(C)C)c2)N=C1N (stereo not shown) [Example 29, 2-amino-1-methyl-4-(3-(pyridin-3-yl)phenyl)-4-(3-(trimethylsilyl)phenyl)-1H-imidazol-5(4H)-one] | 202
7 | CN1C(=O)C(c2cccc(-c3cccnc3F)c2)(c2cccc([Si](C)(C)C)c2)N=C1N (stereo not shown) [Example 30, 2-amino-4-(3-(2-fluoropyridin-3-yl)phenyl)-1-methyl-4-(3-(trimethylsilyl)phenyl)-1H-imidazol-5(4H)-one] | 182
8 | COc1cccc(-c2cccc(C3(c4cccc([Si](C)(C)C)c4)N=C(N)N(C)C3=O)c2)n1 (stereo not shown) [Example 31, 2-amino-4-(3-(6-methoxypyridin-2-yl)phenyl)-1-methyl-4-(3-(trimethylsilyl)phenyl)-1H-imidazol-5(4H)-one] | 1530
9 | CN1C(=O)C(c2cccc(-c3cnccn3)c2)(c2cccc([Si](C)(C)C)c2)N=C1N (stereo not shown) [Example 32, 2-amino-1-methyl-4-(3-(pyrazin-2-yl)phenyl)-4-(3-(trimethylsilyl)phenyl)-1H-imidazol-5(4H)-one] | 86

The remaining lines, values ahead:

Row | IC50 [nM] | Compound
10 | 107 | CN1C(=O)C(c2ccc([Si](C)(C)C)cc2)(c2cccc(-c3cncnc3)c2)N=C1N (racemic) [Example 14, 2-Amino-3-methyl-5-(3-pyrimidin-5-ylphenyl)-5-[4-(trimethylsilyl)phenyl]-3,5-dihydro-4H-imidazol-4-one]
11 | 41 | CN1C(=O)C(c2ccc([Si](C)(C)C)cc2)(c2cccc(-c3cncnc3)c2)N=C1N (single isomer, unassigned) [Example 15 (isomer 1), 2-amino-3-methyl-5-(3-pyrimidin-5-ylphenyl)-5-[4-(trimethylsilyl)phenyl]-3,5-dihydro-4H-imidazol-4-one]
12 | > 10000 | CN1C(=O)C(c2ccc([Si](C)(C)C)cc2)(c2cccc(-c3cncnc3)c2)N=C1N (single isomer, unassigned) [Example 15 (isomer 2), 2-amino-3-methyl-5-(3-pyrimidin-5-ylphenyl)-5-[4-(trimethylsilyl)phenyl]-3,5-dihydro-4H-imidazol-4-one]
13 | 81 | CN1C(=O)C(c2ccc([Si](C)(C)C)cc2)(c2cccc(-c3cccnc3F)c2)N=C1N (stereo not shown) [Example 13, 2-Amino-5-[3-(2-fluoropyridin-3-yl)phenyl]-3-methyl-5-[4-(trimethylsilyl)phenyl]-3,5-dihydro-4H-imidazol-4-one]
14 | 23 | COc1cncc(-c2cccc(C3(c4ccc([Si](C)(C)C)cc4)N=C(N)N(C)C3=O)c2)c1 (stereo not shown) [Example 16, 2-amino-5-[3-(5-methoxypyridin-3-yl)phenyl]-3-methyl-5-(4-trimethylsilylphenyl)imidazol-4-one acetic acid salt]
15 | 118 | CN1C(=O)C(c2ccc([Si](C)(C)C)cc2)(c2cccc(-c3cccnc3)c2)N=C1N (stereo not shown) [Example 17, 2-amino-3-methyl-5-(3-pyridin-3-ylphenyl)-5-(4-trimethylsilylphenyl)imidazol-4-one acetic acid salt]
16 | 180 | CN1C(=O)C(c2ccc([Si](C)(C)C)cc2)(c2cccc(-c3cncc(F)c3)c2)N=C1N (stereo not shown) [Example 18, 2-amino-5-[3-(5-fluoropyridin-3-yl)phenyl]-3-methyl-5-(4-trimethylsilylphenyl)imidazol-4-one acetic acid salt]
17 | 118 | CN1C(=O)C(c2ccc([Si](C)(C)C)cc2)(c2cccc(-c3cncc(C#N)c3)c2)N=C1N (stereo not shown) [Example 19, 5-[3-[2-amino-1-methyl-5-oxo-4-(4-trimethylsilylphenyl)imidazol-4-yl]phenyl]pyridine-3-carbonitrile acetic acid salt]
18 | 437 | CN1C(=O)C(c2ccc([Si](C)(C)C)cc2)(c2cccc(-c3ccc(F)nc3)c2)N=C1N (stereo not shown) [Example 20, 2-amino-5-[3-(6-fluoropyridin-3-yl)phenyl]-3-methyl-5-(4-trimethylsilylphenyl)imidazol-4-one Acetic Acid Salt]
19 | 2740 | CN1C(=O)C(c2ccc([Si](C)(C)C)cc2)(c2cccc(-c3cnn(C)c3)c2)N=C1N (stereo not shown) [Example 22, 2-amino-3-methyl-5-[3-(1-methylpyrazol-4-yl)phenyl]-5-(4-trimethylsilylphenyl)imidazol-4-one Acetic Acid Salt]
20 | 2260 | Cc1ncc(-c2cccc(C3(c4ccc([Si](C)(C)C)cc4)N=C(N)N(C)C3=O)c2)cn1 (stereo not shown) [Example 23, 2-amino-3-methyl-5-[3-(2-methylpyrimidin-5-yl)phenyl]-5-(4-trimethylsilylphenyl)imidazol-4-one acetic acid salt]
21 | 80 | CN1C(=O)C(c2ccc([Si](C)(C)C)cc2)(c2cccc(-c3cnccn3)c2)N=C1N (stereo not shown) [Example 24, 2-amino-3-methyl-5-(3-pyrazin-2-ylphenyl)-5-(4-trimethylsilylphenyl)imidazol-4-one]
22 | 460 | CN1C(=O)C(c2ccc([Si](C)(C)C)cc2)(c2cccc(-c3cnc(F)nc3)c2)N=C1N (stereo not shown) [Example 25, 2-amino-5-[3-(2-fluoropyrimidin-5-yl)phenyl]-3-methyl-5-(4-trimethylsilylphenyl)imidazol-4-one]
